According to BindingDB's records for PubMed 27607900 (Cardiff University, 2016):

How the values were obtained:
[1] = Inhibition of ACT (unknown origin)
Enterococcus faecalis = assay: Antimicrobial activity against Enterococcus faecalis ATCC 29212 assessed as microbial growth inhibition

IC50 [1] [nM]	Compound	IC50 (Enterococcus faecalis) [nM]
145	CC(C)OC(=O)[C@H](Cc1ccccc1)NP(=O)(N[C@@H](Cc1ccccc1)C(=O)OC(C)C)OCOCCn1cnc2c(N)nc(F)nc21	–
–	CCCC(C)CC(C)CC(C)/C=C(C)/C=C/C(O)C(C)C(=O)OC1C(O)CN2CC1NC[C@H]1O[C@@H](OC([C@H]3O[C@@H](n4ccc(=O)[nH]c4=O)[C@H](O)[C@@H]3OS(=O)(=O)O)C2C(=O)O)[C@H](O)[C@@H]1O (some centres not stated)	12
